Results from the supplement of paper PMC10307832.

How the values were obtained:
Assay in all cases: relative viability (nuclei count vs DMSO), 5 days (fraction); higher = more cells survive
Zebularine = compound: O=c1ncccn1[C@@H]1O[C@H](CO)[C@@H](O)[C@H]1O [Zebularine]
Outline: (§1)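 Hoechst staining, done together with fixation and permeabilisation, marked nuclei for 4× imaging and MetaXpress counting. This followed 5 days without medium change after lung cancer cell lines, kept overnight at 37 °C in 1536-well plates, were pinned with five library-drug doses (not always all listed) spaced by √10 on vehicle-anchored plates. Viability is the ratio of treated-well to vehicle-well nuclei, expressed as a median across plates. Plates passed only at control CV below 25% with at least one doubling.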

BI-D1870 = compound: CC(C)CCN1c2nc(Nc3cc(F)c(O)c(F)c3)ncc2N(C)C(=O)C1C [BI-D1870]
Outline: as §1

BI-D1870 + Navitoclax = compound: CC(C)CCN1c2nc(Nc3cc(F)c(O)c(F)c3)ncc2N(C)C(=O)C1C [BI-D1870] + CC1(C)CCC(c2ccc(Cl)cc2)=C(CN2CCN(c3ccc(C(=O)NS(=O)(=O)c4ccc(N[C@H](CCN5CCOCC5)CSc5ccccc5)c(S(=O)(=O)C(F)(F)F)c4)cc3)CC2)C1 [Navitoclax] (partner 0.5 µM)
Outline: (§2)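 After 5 days of treatment, lung cancer cells in 1536-well plates were fixed and stained in a single step (final 0.05% Triton X-100, 1% formaldehyde, 1 ug/ml Hoechst) and their nuclei counted on 4× images. Treatment had been applied by pin tool the day after seeding as one drug alone or as a fixed anchor-drug dose with five library-drug doses (not always all listed) in √10 steps. Relative viability is the nuclei count of treated wells divided by that of vehicle wells, and values are medians of duplicate plates.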

Zebularine + Tozasertib = compound: O=c1ncccn1[C@@H]1O[C@H](CO)[C@@H](O)[C@H]1O [Zebularine] + Cc1cc(Nc2cc(N3CCN(C)CC3)nc(Sc3ccc(NC(=O)C4CC4)cc3)n2)n[nH]1 [Tozasertib] (partner 0.1 µM)
Outline: as §2

## UMC-11
Zebularine; 1 µM
  relative viability: 1.1
Zebularine; 3.162 µM
  relative viability: 0.824
Zebularine; 10 µM
  relative viability: 0.673
Zebularine; 31.62 µM
  relative viability: 0.653
Zebularine; 100 µM
  relative viability: 0.422
BI-D1870; 0.04 µM
  relative viability: 0.972
BI-D1870; 0.1265 µM
  relative viability: 0.949
BI-D1870; 0.4 µM
  relative viability: 1.04
BI-D1870; 1.265 µM
  relative viability: 1.02
BI-D1870; 4 µM
  relative viability: 0.387
BI-D1870 + Navitoclax; first compound 0.04 µM
  relative viability: 0.287
BI-D1870 + Navitoclax; first compound 0.1265 µM
  relative viability: 0.295
BI-D1870 + Navitoclax; first compound 0.4 µM
  relative viability: 0.311
BI-D1870 + Navitoclax; first compound 1.265 µM
  relative viability: 0.336
BI-D1870 + Navitoclax; first compound 4 µM
  relative viability: 0.129
Zebularine + Tozasertib; first compound 1 µM
  relative viability: 0.191
Zebularine + Tozasertib; first compound 3.162 µM
  relative viability: 0.192
Zebularine + Tozasertib; first compound 10 µM
  relative viability: 0.219
Zebularine + Tozasertib; first compound 31.62 µM
  relative viability: 0.213
Zebularine + Tozasertib; first compound 100 µM
  relative viability: 0.207
